# Test results published in US20230110899A1, “NOVEL COMPOSITIONS FOR TREATMENT OF CORONAVIRUS DISEASE” (priority 2020, published 2023).
# Where “and” joins values, the source holds several entries; their conditions need not be identical. Identical values can stand only once.
# How the values were obtained:
# SARS-CoV-2 coronavirus = assay: SARS-CoV-2 plaque reduction assay in Vero E6 cells; format: cell-based; conditions: for Mean PFU/well: n=3
# Vero E6 cells = conditions: up to 40 μM concentrations
# Zika virus = conditions: in vitro, by targeting nonstructural protein 5; cited from earlier work
# [1] = system: adult CF patients experiencing pulmonary exacerbation; conditions: cited from earlier work
# Dengue = conditions: cited from earlier work
# Spinal Cord Injury (SCI) = conditions: oral administration; cited from earlier work
# [2] = biological target: T1, cytosolic phospholipases (cPLA2) (Homo sapiens, UniProt P47712); conditions: cited from earlier work
# T1 sequence (P47712 1-749): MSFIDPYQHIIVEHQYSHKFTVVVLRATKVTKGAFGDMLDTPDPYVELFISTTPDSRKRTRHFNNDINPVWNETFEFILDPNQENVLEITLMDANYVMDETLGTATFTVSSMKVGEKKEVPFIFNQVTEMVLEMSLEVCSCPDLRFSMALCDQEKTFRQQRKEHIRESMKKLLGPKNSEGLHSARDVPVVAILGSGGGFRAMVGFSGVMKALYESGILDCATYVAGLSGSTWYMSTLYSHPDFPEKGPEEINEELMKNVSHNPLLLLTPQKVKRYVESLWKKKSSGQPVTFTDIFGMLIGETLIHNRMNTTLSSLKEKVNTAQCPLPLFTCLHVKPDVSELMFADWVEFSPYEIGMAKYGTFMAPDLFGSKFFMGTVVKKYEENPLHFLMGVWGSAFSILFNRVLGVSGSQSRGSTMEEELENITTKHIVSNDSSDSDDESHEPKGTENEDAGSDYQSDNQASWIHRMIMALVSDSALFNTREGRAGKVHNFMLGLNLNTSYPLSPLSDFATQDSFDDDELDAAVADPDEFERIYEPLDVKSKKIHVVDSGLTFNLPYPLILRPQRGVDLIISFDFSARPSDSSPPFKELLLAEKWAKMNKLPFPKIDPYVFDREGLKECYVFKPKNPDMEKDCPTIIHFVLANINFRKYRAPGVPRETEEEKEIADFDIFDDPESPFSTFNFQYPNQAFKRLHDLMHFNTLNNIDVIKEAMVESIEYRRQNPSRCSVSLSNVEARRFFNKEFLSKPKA
# allergen-sensitized mice = conditions: mouse, in vivo; cited from earlier work
# Dengue infection = conditions: lethal mouse model; cited from earlier work
# [3] = system: LPS induced ARDS mouse model; assay: LPS induced ARDS mouse model (tracheal instillation of 60 μg of LPS), oral and inhaled; format: in vivo, C57BL/6 mice; conditions: for blood oxygen saturation (SpO2): 72 h; for blood reticulocyte count: vs LPS negative control
# [4] = system: MERS-CoV clinical isolate; conditions: viral spike (S) protein expression, infected Vero cells, IFA; read-out: 50% inhibitory concentration (IC50); cited from earlier work
# [5] = Plasma and lung fenretinide exposure, oral and inhaled (Example 3); format: in vivo, C57BL/6 mice; conditions: nebulization of 0.65 mg/mL for 30 or 60 min; calculated, confirmed by analysis of lung tissue
# Streptococcus suis = conditions: acute S. suis infection; cited from earlier work
# Pseudomonas aeruginosa = conditions: Cftr.KO mice; cited from earlier work
# ERK1/2 = conditions: macrophages pretreated prior to S. suis infection, vs nontreated infected macrophages; cited from earlier work
# [6] = inhaled fenretinide 1.8 μg/kg, 72 hours
# [7] = inhaled fenretinide 3.6 μg/kg, 72 hours
structure (smiles),measurement,setting,value
CCC(CC)COC(=O)[C@H](C)N[P@](=O)(OC[C@H]1O[C@@](C#N)(c2ccc3c(N)ncnn23)[C@H](O)[C@@H]1O)Oc1ccccc1 [Remdesivir],% virus survival,SARS-CoV-2 coronavirus; remdesivir 0.625 μM,90.9%
same,"Plaque forming unit counts, Wells 1-3 (individual counts/well)",SARS-CoV-2 coronavirus; remdesivir 0.625 μM,25 (2×) and 20
same,Mean PFU/well,SARS-CoV-2 coronavirus; remdesivir 0.625 μM,23.3 PFU/well
same,% virus survival,SARS-CoV-2 coronavirus; remdesivir 1.25 μM,42.9%
same,"Plaque forming unit counts, Wells 1-3 (individual counts/well)",SARS-CoV-2 coronavirus; remdesivir 1.25 μM,10 and 11 and 12
same,Mean PFU/well,SARS-CoV-2 coronavirus; remdesivir 1.25 μM,11.0 PFU/well
same,"Plaque forming unit counts, Wells 1-3 (individual counts/well)",SARS-CoV-2 coronavirus; remdesivir 2.5 μM,5 (2×) and 2
same,Mean PFU/well,SARS-CoV-2 coronavirus; remdesivir 2.5 μM,4.0 PFU/well
same,% virus survival,SARS-CoV-2 coronavirus; remdesivir 5 μM,2.6%
same,"Plaque forming unit counts, Wells 1-3 (individual counts/well)",SARS-CoV-2 coronavirus; remdesivir 5 μM,1 (2×) and 0
same,Mean PFU/well,SARS-CoV-2 coronavirus; remdesivir 5 μM,0.7 PFU/well
same,% virus survival,SARS-CoV-2 coronavirus; remdesivir 10 μM,0%
same,"Plaque forming unit counts, Wells 1-3 (individual counts/well)",SARS-CoV-2 coronavirus; remdesivir 10 μM,0
same,Mean PFU/well,SARS-CoV-2 coronavirus; remdesivir 10 μM,0.0 PFU/well
same,% virus survival,SARS-CoV-2 coronavirus; remdesivir 20 μM,0.0%
same,"Plaque forming unit counts, Wells 1-3 (individual counts/well)",SARS-CoV-2 coronavirus; remdesivir 20 μM,0
same,Mean PFU/well,SARS-CoV-2 coronavirus; remdesivir 20 μM,0.0 PFU/well
same,% virus survival,SARS-CoV-2 coronavirus; remdesivir 40 μM,0.0%
same,"Plaque forming unit counts, Wells 1-3 (individual counts/well)",SARS-CoV-2 coronavirus; remdesivir 40 μM,0
same,Mean PFU/well,SARS-CoV-2 coronavirus; remdesivir 40 μM,0.0 PFU/well
same,cytopathic effect,Vero E6 cells,No cytopathic effect
"CC1=C(/C=C/C(C)=C/C=C/C(C)=C/C(=O)Nc2ccc(O)cc2)C(C)(C)CCC1 [Fenretinide, 4-hydroxyphenyl retinamide]",activity against Zika virus,Zika virus,potent activity
same,"plasma levels of IL-6, IL-8, IL-10 and neutrophils count",[1]; at the onset of the PEx episode,appeared to improve
same,lipidomic markers,[1]; subgroup with pulmonary exacerbation (PEx),normalized the lipidomic markers in a dose-response manner
same,antiviral activity against Dengue fever disease,Dengue,potent antiviral activity
same,locomotor recovery,Spinal Cord Injury (SCI),improved locomotor recovery
same,activity of cytosolic phospholipases (cPLA2),[2],inhibits the activity of cytosolic phospholipases
same,infiltration of inflammatory cells to the airways,allergen-sensitized mice,complete block of infiltration of inflammatory cells to the airways
same,protection against Dengue infection,Dengue infection,can protect against Dengue infection
same,blood oxygen saturation (SpO2),[3]; inhaled fenretinide 1.8 μg/kg,"partially, but significantly, alleviated the reduction of blood oxygen saturation"
same,lung protein concentration,[3]; [6],reduced the lung protein concentration
same,blood reticulocyte count,[3]; [6],significantly increased reticulocyte counts
same,myeloperoxidase (MPO) activity in the BALF,"[3]; inhaled fenretinide 1.8 μg/kg, 72 hours, statistically significant vs negative control",reduced MPO activity
same,blood oxygen saturation (SpO2),[3]; inhaled fenretinide 3.6 μg/kg,"partially, but significantly, alleviated the reduction of blood oxygen saturation"
same,lung protein concentration,[3]; [7],reduced the lung protein concentration
same,blood reticulocyte count,[3]; [7],significantly increased reticulocyte counts
same,IC50,[4],2.8 µM
same,effective fenretinide dose delivered to the lungs (local lung concentration),[5],1 to 3 µM
same,survival,Streptococcus suis,significantly improved their survival
same,IC50,"SARS-CoV-2 coronavirus; Severe acute respiratory syndrome coronavirus 2, Vero C1008, linear regression analysis (FIG. 1), R2=0.92, read-out: IC50, 50% inhibition of virus survival",1.57 µM
same,% survival,SARS-CoV-2 coronavirus; fenretinide 0.625 μM,80.5%
same,"Plaque forming unit counts, Wells 1-3 (individual counts/well)",SARS-CoV-2 coronavirus; fenretinide 0.625 μM,21 and 19 and 22
same,Mean PFU/well,SARS-CoV-2 coronavirus; fenretinide 0.625 μM,20.7 PFU/well
same,% survival,SARS-CoV-2 coronavirus; fenretinide 1.25 μM,75.3%
same,"Plaque forming unit counts, Wells 1-3 (individual counts/well)",SARS-CoV-2 coronavirus; fenretinide 1.25 μM,14 and 31 and 13
same,Mean PFU/well,SARS-CoV-2 coronavirus; fenretinide 1.25 μM,19.3 PFU/well
same,% survival,SARS-CoV-2 coronavirus; fenretinide 2.5 μM,24.7%
same,"Plaque forming unit counts, Wells 1-3 (individual counts/well)",SARS-CoV-2 coronavirus; fenretinide 2.5 μM,6 and 3 and 10
same,Mean PFU/well,SARS-CoV-2 coronavirus; fenretinide 2.5 μM,6.3 PFU/well
same,% survival,SARS-CoV-2 coronavirus; fenretinide 5 μM,0.0%
same,"Plaque forming unit counts, Wells 1-3 (individual counts/well)",SARS-CoV-2 coronavirus; fenretinide 5 μM,0
same,Mean PFU/well,SARS-CoV-2 coronavirus; fenretinide 5 μM,0.0 PFU/well
same,pulmonary load of Pseudomonas aeruginosa,Pseudomonas aeruginosa,significant decrease in the pulmonary load of Pseudomonas aeruginosa
same,ERK1/2 activation,ERK1/2,significant reduction in ERK1/2 activation
